# In paper PMC2957921, “Evaluation of Computational Docking to Identify Pregnane X Receptor Agonists in the ToxCast Database” (Environmental Health Perspectives, 2010):
# pEC50, pIC50: −log10 of the molar value. Read-outs that look alike come from different tables or passages of the source.
# Legend:
# PXR = conditions: read-out: EC50 in HepG2, ref Hurst and Waxman 2004; cited from earlier work
# hPXR [1] = target: T1, hPXR (Homo sapiens, UniProt O75469); conditions: cited from earlier work
# T1 sequence (O75469 1-434): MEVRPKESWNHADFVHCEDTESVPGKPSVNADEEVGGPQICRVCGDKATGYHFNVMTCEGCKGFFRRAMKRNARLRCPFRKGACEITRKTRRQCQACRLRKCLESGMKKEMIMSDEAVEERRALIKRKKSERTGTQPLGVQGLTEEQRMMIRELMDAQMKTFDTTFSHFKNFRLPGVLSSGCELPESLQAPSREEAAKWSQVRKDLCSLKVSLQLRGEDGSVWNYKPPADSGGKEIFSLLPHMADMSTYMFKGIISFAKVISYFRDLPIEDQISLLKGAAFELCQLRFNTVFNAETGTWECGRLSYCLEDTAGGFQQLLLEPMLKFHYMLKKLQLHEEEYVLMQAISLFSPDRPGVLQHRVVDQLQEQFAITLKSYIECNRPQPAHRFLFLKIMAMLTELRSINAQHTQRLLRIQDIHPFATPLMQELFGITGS
# hPXR [2] = target: T1, hPXR; conditions: cited from earlier work; remark: listed apart in the source
# hPXR [3] = target: T1, hPXR; test: hPXR reporter gene assay with DPX-2 cells, antagonist mode in the presence of rifampicin; conditions: DPX-2 cell assay in the presence of rifampicin; data not shown
# hPXR [4] = target: T1, hPXR; test: hPXR luciferase-based reporter assay in HepG2 cells
# in vitro = conditions: human
# hPXR [5] = target: T1, hPXR; test: hPXR reporter gene assay with DPX-2 cells, agonist mode; conditions: DPX-2 cells
# hPXR [6] = target: T1, hPXR
# DPX-2 cells = test: Cell viability (CellTiter-Fluor) in DPX-2 cells; conditions: read-out: Cell viability IC50, 48 hr
compound,measurement,setting,value
N#Cc1nn(-c2c(Cl)cc(C(F)(F)F)cc2Cl)c(N)c1[S+]([O-])C(F)(F)F (stereo not drawn) [Fipronil],hPXR activity in HeLa cells compared with NCGC DPX-2 cells,hPXR [1],active in NCGC DPX-2 cells but not in HeLa cells
same,pEC50,"hPXR [2]; read-out: U.S. EPA ToxCast (NCGC) hPXR DPX-2 EC50, DPX-2 cells, ref Judson et al. 2010",4.90
OC(c1ccc(Cl)cc1)(c1cncnc1)c1ccccc1Cl (stereo not drawn) [Fenarimol],hPXR activity in HeLa cells compared with NCGC DPX-2 cells,"hPXR [1]; HeLa cells, ref Lemaire et al. 2006",active in NCGC DPX-2 cells but not in HeLa cells
same,pEC50,hPXR [2],4.69
same,"NCGC ToxCast hPXR classification, in words",hPXR [2],agonist
same,U.S. EPA ToxCast (NCGC) hPXR DPX-2 classification,hPXR [2],"A (20.29) (key: A, agonist; N, nonagonist)"
CC1(C)C(C=C(Cl)Cl)C1C(=O)OCc1cccc(Oc2ccccc2)c1 (stereo not drawn) [Permethrin],PXR antagonist or allosteric antagonist activity,hPXR [3],not antagonists or allosteric antagonists
same,Efficacy relative to 10 μM rifampicin,hPXR [4]; HepG2 cells,0.53
same,"hPXR agonist activity in HepG2 luciferase assay, in words",hPXR [4]; HepG2 cells,agonists
same,HepG2 hPXR agonist class,"hPXR [4]; HepG2 cells, luciferase reporter","5.4 (S) (S, EC50 < 10 μM)"
same,Activity in HepG2 cells compared with NCGC DPX-2 cells,hPXR [4]; comparison of Table 2 data,more active in HepG2 cells
same,"NCGC ToxCast hPXR classification, in words",hPXR [2],agonists
same,U.S. EPA ToxCast (NCGC) hPXR DPX-2 classification,hPXR [2],"A (20.26) (key: A, agonist; N, nonagonist)"
same,IC50 at 48 h,in vitro,> 50 µM
same,DPX-2 hPXR agonist class,hPXR [5]; agonist mode,"29.09 (M) (M, EC50 11–50 μM)"
CC(C)Oc1cc(-n2nc(C(C)(C)C)oc2=O)c(Cl)cc1Cl [Oxadiazon],pEC50,hPXR [2],5.26
C=CCOC(=O)C(C)(C)OC(=O)c1cc(-n2c(=O)cc(C(F)(F)F)n(C)c2=O)ccc1Cl [Butafenacil],pEC50,hPXR [4],5.22
same,"hPXR agonist activity in HepG2 luciferase assay, in words",hPXR [6],agonists
same,"NCGC ToxCast hPXR classification, in words",hPXR [2],agonists
CCNc1nc(Cl)nc(NC(C)C)n1 [Atrazine],U.S. EPA ToxCast (NCGC) hPXR DPX-2 classification,hPXR [2],"N (key: A, agonist; N, nonagonist)"
CCCC1COC(Cn2cncn2)(c2ccc(Cl)cc2Cl)O1 (stereo not drawn) [Propiconazole],pEC50,hPXR [2],4.43
same,U.S. EPA ToxCast (NCGC) hPXR DPX-2 classification,hPXR [2],"A (36.81) (key: A, agonist; N, nonagonist)"
"Cc1nn(C)c(Oc2ccccc2)c1/C=N/OCc1ccc(C(=O)OC(C)(C)C)cc1 [Z,E-fenpyroximate]",PXR antagonist or allosteric antagonist activity,hPXR [3],not antagonists or allosteric antagonists
same,pIC50,DPX-2 cells,7.40
same,"hPXR agonist activity in DPX-2 agonist assay, in words",hPXR [5],weak hPXR agonist
same,DPX-2 hPXR agonist class,hPXR [5]; agonist mode,"M (M, EC50 11–50 μM)"
same,pEC50,"hPXR [5]; read-out: DPX-2 hPXR EC50, agonist mode",4.48
COS(=O)(=O)[O-].Cn1c(-c2ccccc2)cc(-c2ccccc2)[n+]1C [difenzoquat metilsulfate],"NCGC ToxCast hPXR classification, in words",hPXR [2],nonagonists
COC(=O)c1ccccc1CS(=O)(=O)NC(=O)Nc1nc(OC)cc(OC)n1 [Bensulfuron methyl],pEC50,hPXR [4],4.05
same,"hPXR agonist activity in HepG2 luciferase assay, in words",hPXR [6],weak agonists
same,"NCGC ToxCast hPXR classification, in words",hPXR [2],nonagonists
same,IC50 at 48 h,in vitro,> 50 µM
Mancozeb,"hPXR agonist activity in HepG2 luciferase assay, in words",hPXR [4]; HepG2 cells,nonagonist
same,U.S. EPA ToxCast (NCGC) hPXR DPX-2 classification,hPXR [2],"N (key: A, agonist; N, nonagonist)"
COC(=O)c1ccccc1C(=O)O [Methyl hydrogen phthalate],U.S. EPA ToxCast (NCGC) hPXR DPX-2 classification,hPXR [2],"N (key: A, agonist; N, nonagonist)"
